Reference: patent US20240025849A1 (MAX DELBRÜCK-CENTRUM FÜR MOLEKULARE MEDIZIN IN DER …, priority 2020, published 2024)
“Also recorded” adds a separate entry of the source.

Key:
[1] = test system: C57Bl/6 mice after 30 minutes MCAO; test: Middle cerebral artery occlusion (MCAO) model of mild ischemic injury; type: in vivo, mouse; conditions: 5 mg/kg i.p. daily
Method: Animals and Group Allocation for middle cerebral artery occlusion (MCAO) study. C57BL/6 (13 weeks old, Charles River, Germany) male mice were handled according to governmental (LaGeSo-G0249/15) and internal (MDC/Charitd) rules and regulations, having free access to food and water. A total of 24 male mice were analysed after a 30 minutes of left-sided MCAO. Animals were randomly attributed to treatment paradigms, and experimenters were blinded at all stages of interventions. The mice were injected intraperitoneally (i.p.) every day for the 7 days, subsequently of the behavioral tests, with the compound (n=11) or with the vehicle ([…], n=13).
Induction of cerebral ischemia. Mice were anesthetized for induction with 3-4% isoflurane and maintained in 1.5% isoflurane in 70% N2O and 30% O2 using a vaporizer. MCAO was essentially performed as described elsewhere (Endres et al., 2000). In brief, brain ischemia was induced with a silicone rubber-coated monofilament 7-0, diameter 0.06-0.09 mm, length 20 mm; diameter with coating […]; coating length 9-10 mm. The filament was introduced into the internal carotid artery up to the anterior cerebral artery. Thereby, the middle cerebral artery and anterior choroidal arteries were occluded. The filament was removed after 30 min to allow reperfusion.
MRI was performed using a 7 Tesla rodent scanner (Pharmascan 70/16, Bruker BioSpin, Bruker, Billerica, USA) with a 16 cm horizontal bore magnet and a 9 cm (inner diameter) shielded gradient with an H-resonance-frequency of 300 MHz and a maximum gradient strength of 300 mT/m. For imaging a 20 mm-1H-RF quadrature-volume resonator with an inner diameter of 20 mm was used. Data acquisition and image processing were carried out with the Bruker software Paravision 5.1. During the examinations mice were placed on a heated circulating water blanket to ensure constant body temperature of 37° C. Anaesthesia was induced with 2.5% and maintained with 2.0-1.5% isoflurane (Forene, Abbot, Wiesbaden, Germany) delivered in an O2/N2 mixture (0.3/0.7 L/min) via a facemask under constant ventilation monitoring (Small Animal Monitoring & Gating System, SA Instruments, New York, USA). For imaging the mouse brain a T2-weighted 2D turbo spin-echo sequence was used (imaging parameters TR/TE=4200/36 ms, rare factor 8, 4 averages, 32 axial slices with a slice thickness of 0.5 mm, field of view of 2.56×2.56 cm, matrix size 256×256).
Calculation of lesion volume was carried out with the program Analyze 10.0 (AnalyzeDirect, Inc., Overland Park, USA). The hyperintense ischemic areas in axial T2-weighted images were assigned with a region of interest tool. This enables threshold based segmentation by connecting all pixels within a specified threshold range about the selected seed pixel and results in 3D object map of the whole stroke region. Further the total volume of the whole object map was automatically calculated.
The Rotarod test was performed to access motor coordination using a treadmill with a diameter of 3 cm (TSE Systems, Chesterfield, USA). This test was performed with accelerating velocity (4-40 rpm) and maximal velocity was achieved after 300 s. The time until the animals dropped was measured. Animals were trained on day 2 and 3 before MCAO and baseline was taken on the day before MCAO. Tests were always performed four times and means were used for statistical analysis.
A vertical pole (80 cm high with rough surface) was used for this test, to analyse extrapyramidal motor locomotion. Mice were placed head upward on the top of the pole. The time taken to orientate the body completely downwards, making a 180° turn (t turn), and to reach the floor with all four paws (t down) were recorded. If the animal was unsuccessful for either task, it was scored the maximum time that any other animal from the same experimental group took to perform the task. Animals were trained on day 2 and 3 before MCAO and baseline was taken on the day before MCAO. […]

eNOS = biological target: T1, eNOS (Homo sapiens, UniProt P29474); test: NOS enzyme activity assay (Eurofins), eNOS; type: biochemical; conditions: C1: 1 nM and 1 μM; 30 min reaction
T1 construct: Eurofins (contract assay service)
Method: To evaluate the direct influence of cl on the different isoforms of NOS, an enzyme activity assay was conducted by Eurofins. C1 was mixed with the enzyme buffer, which included co-factors and substrates and by adding the enzyme the reaction was initiated. After 30 min the reaction was stopped, and NO concentration was measured. The results are normalised to positive control performed without any additional compounds and are presented as percentage in inhibition. […] To test the compounds effect on iNOS a concentration range from 1 μM up to 5 μM were applied (1, 10, 100 μM, 1, 10, 100 nM, 1, and 5 μM), and for testing eNOS and nNOS 1 nM and 1 μM were applied.

Compound: COc1ccc(NC(=O)C(NC(=O)C2CCCN2C(=O)OCc2ccccc2)c2ccc(OC)cc2)cc1 (stereo not shown) [C1]
- pole test, time descending the pole ([1]; day 2 after MCAO): 6.592 s
- pole test, time to turn 180° ([1]; day 2 after MCAO): 1.175 s
- accelerated Rotarod test ([1]; day 2 and 5 after MCAO, vs vehicle): no differences; also recorded: No significant difference
- volume of the ischemic lesion (MRI) ([1]; day 3 after MCAO, vs vehicle): did not cause a significant difference; also recorded: No significant difference
- pole test, difference to control group ([1]; day 5 after MCAO): No differences were observed
- corner test, turns to the left in 10 turns ([1]; day 6 after MCAO): 7.00
- enzymatic activity of eNOS (eNOS): does not interfere
